Among the data in US11555026B2, “AHR inhibitors and uses thereof” (Ikena Oncology, Inc., priority 2017, dated 2023) are IC50 values, retold here.

SMILES strings stand for the structures. pIC50: −log10 of the molar value.

The target of one assay is T1, AHR (UniProt P35869).
T1 sequence (P35869 1-848): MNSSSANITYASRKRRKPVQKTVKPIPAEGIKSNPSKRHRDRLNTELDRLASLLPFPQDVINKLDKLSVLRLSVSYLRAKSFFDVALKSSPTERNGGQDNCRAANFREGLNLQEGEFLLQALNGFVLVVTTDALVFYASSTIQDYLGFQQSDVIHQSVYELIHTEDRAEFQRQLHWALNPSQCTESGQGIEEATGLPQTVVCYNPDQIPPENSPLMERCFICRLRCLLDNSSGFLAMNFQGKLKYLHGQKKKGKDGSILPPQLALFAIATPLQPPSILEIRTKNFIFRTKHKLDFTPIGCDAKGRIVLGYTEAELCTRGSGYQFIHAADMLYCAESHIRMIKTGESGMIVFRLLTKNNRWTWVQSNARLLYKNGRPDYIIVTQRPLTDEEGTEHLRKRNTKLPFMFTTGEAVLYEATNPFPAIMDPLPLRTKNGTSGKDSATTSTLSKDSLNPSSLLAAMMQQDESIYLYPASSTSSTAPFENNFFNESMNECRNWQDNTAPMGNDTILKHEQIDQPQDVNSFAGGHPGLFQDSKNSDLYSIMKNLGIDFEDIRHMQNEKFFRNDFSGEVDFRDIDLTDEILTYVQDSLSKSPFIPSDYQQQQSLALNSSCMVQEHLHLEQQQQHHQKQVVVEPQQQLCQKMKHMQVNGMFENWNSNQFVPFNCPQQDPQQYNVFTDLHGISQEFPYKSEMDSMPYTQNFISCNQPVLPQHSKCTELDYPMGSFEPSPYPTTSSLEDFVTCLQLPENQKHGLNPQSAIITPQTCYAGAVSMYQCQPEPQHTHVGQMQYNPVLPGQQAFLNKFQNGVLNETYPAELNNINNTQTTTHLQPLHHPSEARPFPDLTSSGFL
Description: DRE-Luciferase Reporter Assay (Alternate Method, Example 1B). Particulars: alternate method: compound and agonist added at plating or after overnight incubation; murine (Hepa1-6, Hepa-1c1c7) or human (HepG2) DRE-luciferase reporter cells, cell line used not stated. It is filed as cell-based. Details: IC50; other: alternate method: compound and agonist added at plating or after overnight incubation; murine (Hepa1-6, He). As to the method: (§1) AHR binds to Dioxin Responsive Elements (DRE) upstream of genes that it activates. One measure of AHR activity is activation of a reporter gene, such as luciferase, downstream of one or multiple DRE elements. Luciferase activity will reflect activation and inhibition of AHR in the cells expressing his reporter.
Murine Hepa1-6 or Hepa-1c1c7 or other murine cell line with a DRE-luciferase reporter either stably or transiently transfected were plated in media in plates (96-well, 384-well or other plates) and incubated overnight at 37° C. in a CO2 incubator or compound and agonist were added at the time of plating. Likewise, human HepG2 or other human cell line with a DRE-luciferase reporter either stably or transiently transfected were plated in media in plates (96-well, 384-well or other plates) and incubated overnight at 37° C. in a CO2 incubator or compound and agonist were added at the time of plating.
At the time that cells are plated or following incubation overnight, an AHR activating ligand, such as TCDD, kynurenine, ITE (2-(1H-indole-3-ylcarbonyl)-4-thiazolecarboxylic methyl ester), VAF347, BNF (beta-naphthoflavone), FICZ (6-formylindolo(3,2-b) carbazole or other AHR ligands, was added with or without AHR antagonist.
(§2) Cells were incubated for 4, 15 or 24 hours or another time point and then lysed for determination of luciferase activity as a read-out of the AHR activation or inhibition. Luciferase was measured with a commercial kit such as the Promega Luciferase kit or any kit or reagents that provide the luciferin substrate for measuring luciferase activity. The level of luciferase with only activating ligand added was the maximum signal while the luciferase with no ligand was the minimum signal. IC50 values were determined as the concentration which inhibits half of the luciferase activity.
(In general: A reporter such as luciferase makes a cellular process visible.)
In general, pIC50 refers to −log10 of the IC50, conventionally taken in molar units. A high value points to a low IC50. For `Cn1nccc1C(=O)Nc1ccc2cc(-c3ccc(C(F)(F)F)cc3)cnc2c1` [I-87, 2-Methyl-N-[3-[4-(trifluoromethyl)phenyl]-7-quinolyl]pyrazole-3-carboxamide], the pIC50 is less than 5.82. Still for that read-out and setting: then `Cn1nccc1C(=O)Nc1ccc2cc(-c3ccccc3C(F)(F)F)cnc2c1` [I-88, 2-Methyl-N-[3-[2-(trifluoromethyl)phenyl]-7-quinolyl]pyrazole-3-carboxamide], with less than 5.82.

Another assay deals with T1, AHR. The experiment in a line: DRE-Luciferase Reporter Assay (Example 1A). It is filed as cell-based. Details: IC50. Particulars: concentration which inhibits half of the luciferase activity induced by an AHR activating ligand; murine (Hepa1-6, Hepa-1c1c7) or human (HepG2) DRE-luciferase reporter cells, cell line used not stated. As to the method:
as §1
Murine Hepa1-6 or Hepa-1c1c7 or other murine cell line with a DRE-luciferase reporter either stably or transiently transfected were plated in media in plates (96-well, 384-well or other plates) and incubated overnight at 37° C. in a CO2 incubator. Likewise, human HepG2 or other human cell line with a DRE-luciferase reporter either stably or transiently transfected were plated in media in plates (96-well, 384-well or other plates) and incubated overnight at 37° C. in a CO2 incubator.
The next day, an AHR activating ligand, such as TCDD, kynurenine, ITE (2-(1H-indole-3-ylcarbonyl)-4-thiazolecarboxylic methyl ester), VAF347, BNF (beta-naphthoflavone), FICZ (6-formylindolo(3,2-b) carbazole or other AHR ligands, was added with or without AHR antagonist.
as §2
`Cc1cc(C(=O)N2CCCc3ccccc32)ccc1NC(=O)c1ccnn1C` [I-1] showed a pIC50 of less than 5.82. Still for that read-out and setting: then `Cc1cc(C(=O)N2CCc3ccccc32)ccc1NC(=O)c1ccnn1C` [I-2], with less than 5.82; and `Cc1cc(C(=O)Nc2ncccc2C)ccc1NC(=O)c1ccnn1C` [I-3], with less than 5.82; and `Cc1cc(C(=O)n2ccc3ccccc32)ccc1NC(=O)c1ccnn1C` [I-4], with less than 5.82.

On to `Cc1ccccc1/C=C/c1ccc(NC(=O)c2ccnn2C)c(C)c1` [I-5, (E)-1-methyl-N-(2-methyl-4-(2-methylstyryl)phenyl)-1H-pyrazole-5-carboxamide], for which the negative logarithm of the IC50 (pIC50) is greater than 6.30. Consider `Cc1ccccc1CCc1ccc(NC(=O)c2ccnn2C)c(C)c1` [I-6, 1-methyl-N-(2-methyl-4-(2-methylphenethyl)phenyl)-1H-pyrazole-5-carboxamide], for which the pIC50 was less than 5.82.

Compound `Cc1ccccc1/C=C\c1ccc(NC(=O)c2ccnn2C)c(C)c1` [I-7, (Z)-1-methyl-N-(2-methyl-4-(2-methylstyryl)phenyl)-1H-pyrazole-5-carboxamide] gave a negative logarithm of the IC50 (pIC50) of less than 5.82.

Regarding `Cc1ccccc1NC(=O)c1ccc(NC(=O)c2ccnn2C)c(C)c1` [I-8, 1-methyl-N-(2-methyl-4-(o-tolylcarbamoyl)phenyl)-1H-pyrazole-5-carboxamide], the pIC50 is less than 5.82.

As to `Cc1cc(NC(=O)c2ccccc2C)ccc1NC(=O)c1ccnn1C` [I-9, 1-methyl-N-(2-methyl-4-(2-methylbenzamido)phenyl)-1H-pyrazole-5-carboxamide], the negative-log IC50 (pIC50) was less than 5.82. The same measure, in the same setting: then `Cc1ccccc1CNc1ccc(NC(=O)c2ccnn2C)c(C)c1` [I-10, 1-methyl-N-(2-methyl-4-((2-methylbenzyl)amino)phenyl)-1H-pyrazole-5-carboxamide], with less than 5.82; and `Cc1ccccc1NCc1ccc(NC(=O)c2ccnn2C)c(C)c1` [I-11, 1-methyl-N-(2-methyl-4-((o-tolylamino)methyl)phenyl)-1H-pyrazole-5-carboxamide], with less than 5.82; and `Cc1ccccc1NC(=O)c1ccc(NC(=O)c2ccnn2C)c(C)n1` [I-12, 6-Methyl-5-(1-methyl-1H-pyrazole-5-carboxamido)-N-(o-tolyl)picolinamide], with 6.00 to 6.30.

For the compound `Cc1cc(C(=N)Nc2ncccc2C)ccc1NC(=O)c1ccnn1C` [I-13], the negative logarithm of the IC50 (pIC50) is less than 5.82. `Cc1ccccc1/N=N/c1ccc(NC(=O)c2ccccn2)c(C)c1` [I-14] showed a pIC50 of less than 5.82. The same measure, in the same setting: to `Cc1ccccc1NCc1ccc(NC(=O)c2ccnn2C)c(C)n1` [I-15, 2-Methyl-N-[2-methyl-6-[(2-methylanilino)methyl]-3-pyridyl]pyrazole-3-carboxamide] belongs 5.82 to 6.00; to `Cc1cc(N)ccc1NC(=O)c1ccnn1C` [I-16], less than 5.82. Still for that read-out and setting: to `Cc1cc(COc2ccccc2C)ccc1NC(=O)c1ccnn1C` [I-18, 2-Methyl-N-[2-methyl-4-[(2-methylphenoxy)methyl]phenyl]pyrazole-3-carboxamide] belongs greater than 6.30. As for `Cc1cc(/C=C/c2cccnc2C)ccc1NC(=O)c1ccnn1C` [I-19], the negative-log IC50 (pIC50) is less than 5.82.

`Cc1cc(/C=C/c2ccccc2)ccc1NC(=O)c1ccnn1C` [I-20, 2-Methyl-N-[2-methyl-4-[(E)-styryl]phenyl]pyrazole-3-carboxamide]: the negative-log IC50 (pIC50) is greater than 6.30.

Compound `Cc1cc(C2OC2c2ccccc2)ccc1NC(=O)c1ccnn1C` (stereo not shown) [I-21] gave a negative-log IC50 (pIC50) of less than 5.82.

As for `Cn1nccc1C(=O)Nc1ccc2nc(-c3ccccc3)ccc2c1` [I-22, 2-Methyl-N-(2-phenyl-6-quinolyl)pyrazole-3-carboxamide], the pIC50 was greater than 6.30.

Compound `Cc1cc(C2OC2c2ccccc2C)ccc1NC(=O)c1ccnn1C` (stereo not shown) [I-23, 2-Methyl-N-[2-methyl-4-[3-(o-tolyl)oxiran-2-yl]phenyl]pyrazole-3-carboxamide] gave a negative-log IC50 (pIC50) greater than 6.30. Same read-out and setting: then `Cc1ccccc1/N=N/c1ccc(NC(=O)c2ccnn2C)cc1C` [I-24, 2-Methyl-N-[3-methyl-4-[(E)-o-tolylazo]phenyl]pyrazole-3-carboxamide], with greater than 6.30; and `Cc1ccccc1/N=N/c1ccc(C(=O)Nc2ccnn2C)c(C)c1` [I-25, 2-Methyl-N-(2-methylpyrazol-3-yl)-4-[(E)-o-tolylazo]benzamide], with greater than 6.30; and `Cc1cc(/N=N/c2ncccc2C)ccc1NC(=O)c1ccnn1C` [I-26], with less than 5.82. For `Cc1ccccc1/C=C/c1ccc(NC(=O)c2ccnn2C)cc1` [I-27, 2-Methyl-N-[4-[(E)-2-(o-tolyl)vinyl]phenyl]pyrazole-3-carboxamide], the pIC50 is 6.00 to 6.30. In turn, `Cc1ccccc1C#Cc1ccc(NC(=O)c2ccnn2C)c(C)c1` [I-29, 2-Methyl-N-[2-methyl-4-[2-(o-tolyl)ethynyl]phenyl]pyrazole-3-carboxamide] gave a pIC50 greater than 6.30. Regarding `Cc1ccccc1-c1ccc2cc(NC(=O)c3ccnn3C)ccc2n1` [I-30], the negative logarithm of the IC50 (pIC50) is less than 5.82. Take `Cc1cc(-c2cc3ccccc3cn2)ccc1NC(=O)c1ccnn1C` [I-31]: the pIC50 was less than 5.82. In turn, `Cc1cc(-c2ccc3ccccc3c2)ccc1NC(=O)c1ccnn1C` [I-32] gave a negative logarithm of the IC50 (pIC50) of less than 5.82. The same measure, in the same setting: then `Cc1ccccc1/C=C/c1ccc(NC(=O)c2ccn[nH]2)c(C)c1` [I-36], with less than 5.82. Take `Cc1ccccc1/C=C/c1ccc(NC(=O)c2cncn2C)c(C)c1` [I-37]: the pIC50 is less than 5.82.
